Test results from patent US7718679B2, “Heteroaryl carboxamides” (Hoffman-La Roche Inc., priority 2006, dated 2010).

Molecular target: T1, human factor Xa (Homo sapiens, UniProt P00742)
T1 construct: Factor Xa is a serine endopeptidase composed of two disulfide-linked subunits; purchased Enzyme Research Laboratories
Assay: Factor Xa chromogenic peptide substrate (S-2222) assay
Assay type: biochemical
Conditions: apparent Ki by Cheng-Prusoff from IC50; human factor Xa 3 nM, substrate S-2222, pH 7.8, room temperature
Protocol: Factor Xa activity was measured spectrophotometrically in microtiter plates in a final volume of 150 μl using the following conditions: Inhibition of human factor Xa (Enzyme Research Laboratories) was tested at an enzyme concentration of 3 nM using the chromogenic substrate S-2222 (Chromogenix AB, Mölndal, Sweden) at 200 nM. The reaction kinetics of the enzyme and the substrate were linear with both time and the enzyme concentration. The inhibitors were dissolved in DMSO and tested at various concentrations up to 100 μM. The inhibitors were diluted using HNPT buffer consisting of HEPES 100 mMM, NaCl 140 mM, PEG 6000 0.1% and Tween 80 0.02%, pH 7.8. […] The velocity of the reaction was determined by the autoreader from the slope of the linear regression fit to 7 time points (1 minute). The initial velocity for each inhibitor concentration was determined by the slope of at least 4 time points in the linear phase by a linear regression fit (mOD/min^2). Apparent dissociation constants Ki were calculated according to Cheng and Prusoff [Cheng, Y. C.; Prusoff, W. H. Relationship between the inhibition constant (Ki) and the concentration of the inhibitor that causes 50 percent inhibition (IC50) of an enzyme reaction. Biochem. Pharmacol. 1973, 22, 3099-3108.] based on the IC50 and the respective Km, determined previously (Ki=IC50/(1+S/Km)). […]

T1 sequence (P00742 235-488 limits assumed): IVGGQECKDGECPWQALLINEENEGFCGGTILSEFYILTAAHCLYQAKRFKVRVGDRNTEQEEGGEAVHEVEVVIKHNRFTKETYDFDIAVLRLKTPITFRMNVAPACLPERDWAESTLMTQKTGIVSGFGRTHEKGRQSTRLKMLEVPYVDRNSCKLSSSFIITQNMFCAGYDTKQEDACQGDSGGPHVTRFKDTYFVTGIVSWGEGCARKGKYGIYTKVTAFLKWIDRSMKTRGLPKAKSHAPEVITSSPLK
T1 sequence (P00742 41-179 partner limits assumed): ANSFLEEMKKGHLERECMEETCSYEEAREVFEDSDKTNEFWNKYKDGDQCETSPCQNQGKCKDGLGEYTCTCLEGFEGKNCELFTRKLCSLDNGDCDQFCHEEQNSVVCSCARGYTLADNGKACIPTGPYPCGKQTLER

| Compound | Ki [µM] |
| --- | --- |
| O=C(Nc1ccc(N2CCOCC2=O)cc1)c1nc(CNC(=O)c2ccc(Cl)s2)no1 [Example 5, 3-{[(5-chloro-thiophene-2-carbonyl)-amino]-methyl}-[1,2,4]oxadiazole-5-carboxylic acid [4-(3-oxo-morpholin-4-yl)-phenyl]-amide] | 0.016 |
| O=C(Nc1ccc(-n2ccncc2=O)cc1F)c1nc(CNC(=O)c2ccc(Cl)s2)no1 [Example 3, 3-{[(5-chloro-thiophene-2-carbonyl)-amino]-methyl}-[1,2,4]oxadiazole-5-carboxylic acid [2-fluoro-4-(2-oxo-2H-pyrazine-1-yl)-phenyl]-amide] | 0.007 |
